Reference: US11844779B2, “PKC-Delta-I inhibitor formulations and uses thereof” (University of South Florida, priority 2016, dated 2023)

How the values were obtained:
[1] = biological target: T1, PKCδI (Mus musculus, UniProt P28867); assay: Western blot on differentiating 3T3L1 cells (inhibitors added day 1 of differentiation); assay type: cell-based; conditions: 3T3L1, inhibitors added day 1 of differentiation, 24 h; for cleavage and release of the PKCδI catalytic domain: C-terminal PKCδ antibody
T1 construct: endogenous in cells; host or cells: 3T3L1 (differentiating pre-adipocytes, day 1; mature adipocytes, day 6)
Method: The compounds identified from the docking modeling were tested for their ability to inhibit PKCδI. 3T3L1 cells were plated in 60 mm dishes and differentiated. PKCδI regulates cell cycle during differentiation of pre-adipocytes to adipocytes. The inhibitors were added on day 1 of differentiation during mitotic clonal expansion when PKCδI expression is high (18). After 24 h, the cells were harvested and western blot analysis was performed on whole cell lysates.

[2] = biological target: T1, PKCδI; assay: Western blot on mature adipocytes (inhibitors added day 6 of differentiation); assay type: cell-based; conditions: for phosphorylation of myelin basic protein (PKCδI substrate) / cleavage and release of the PKCδI catalytic domain: mature adipocytes, inhibitors added day 6 of differentiation, 24 h; for cleavage and release of the PKCδI catalytic domain: C-terminal PKCδ antibody
Method: Next, compounds 5139627, 5320091, 72950115, 28578828, 61397826 and 43844983 were tested on mature adipocytes. The inhibitors were added on day 6 of differentiation when the adipocytes are lipid laden. After 24 h, the cells were harvested and western blot analysis was performed on whole cell lysates.

[3] = biological target: T2, PKCδI (Homo sapiens, UniProt Q05655); assay: In vitro kinase assay with recombinant PKCδI and SC35 as substrate; assay type: biochemical; conditions: 10 nM, 30 min incubation prior to assay, phosphatidyl serine and ATP
Method: Next, in vitro kinase assays were performed with recombinant proteins PKCδI and SC35 (as substrate) in a kinase buffer containing phosphatidyl serine and ATP; with and without 10 nM 5139627, 28578828 (30 min incubation prior to assay).

[4] = system: obese adipocytes; assay: WST-1 assay for cell viability; assay type: cell-based; conditions: 10 nM
Method: A WST-1 assay performed using obese adipocytes treated with 513627 to evaluate toxicity of compound 513627. Briefly, obese adipocytes were treated with 10 nM of compound 513627 and a WST-1 assay for cell viability was performed. FIG. 5 represents data from four experiments.

[5] = biological target: T2, PKCδI; assay: PKC kinase activity kit, colorimetric assay (ENZO); assay type: biochemical; conditions: run in triplicate
Method: (§1) Briefly, a Protein Kinase C (PKC) kinase activity kit was used and a colorimetric assay (ENZO; run in triplicate) was performed. Relative kinase activity was calculated as (average absorbance of PKC isozyme−Average absorbance of blank)/quantity of pure kinase used per assay.

[6] = biological target: T2, PKCδI; assay: Western blot on adipocytes from obese donor, PKCδI cleavage; assay type: cell-based; design: adipocytes from the obese donor were treated with about 10-100 nM NP627; endogenous in cells; host or cells: primary human adipocytes from visceral adipose tissue of an obese donor; conditions: about 10-100 nM, about 24 h
Description: (§2) The C-terminal fragment of PKCδI phosphorylates its substrates that mediate expression of pro-apoptotic proteins. For a functional read-out, an assay was designed to measure: (1) Bcl-xL switching to its pro-apoptotic variant Bcl-xS and (2) Caspase9b switching to its pro-apoptotic variant caspase 9a. Briefly, adipocytes were freshly isolated from human visceral adipose tissue of lean and obese donors (IRB #20295; lean BMI 22.1 and 23; obese BMI 43.7 and 44.3; non-diabetic, nonsmokers, non-cancer).
(§3) Additionally, adipocytes from the obese donor were treated with about 10-100 nM NP627 (compound 513627) for about 24 h (n=3). Expression of PKCδI_F, PKCδI_C, PKCδVIII, and β-Actin (control) were analyzed using western blotting.

[7] = biological target: T3, PKCδVIII (Homo sapiens, UniProt Q05655); assay: Western blot on adipocytes from obese donor, PKCδVIII; assay type: cell-based; conditions: about 10-100 nM, about 24 h
T3 construct: adipocytes from the obese donor were treated with about 10-100 nM NP627; endogenous in cells; host or cells: primary human adipocytes from visceral adipose tissue of an obese donor
Description: as §2, §3

[8] = system: other PKCs; assay: PKC kinase activity kit, colorimetric assay (ENZO), other PKC isozymes; assay type: biochemical; conditions: run in triplicate
Method: as §1

[9] = system: Bxl-xS and caspase9a; assay: PCR based expression of pro-apoptotic variants in adipocytes from obese donor; assay type: cell-based, human; conditions: about 10 nM, about 24 h
Description: as §2
Additionally, adipocytes from the obese donor were treated with about 10 nM of NP627 for about 24 h (n=3). Expression of Bxl-xL, Bxl-xS, caspase9a, andβ-actin (control) were analyzed using a PCR based technique (n=3).

[10] = both pre-adipocytes and mature adipocytes

T2 sequence (Q05655 whole entry): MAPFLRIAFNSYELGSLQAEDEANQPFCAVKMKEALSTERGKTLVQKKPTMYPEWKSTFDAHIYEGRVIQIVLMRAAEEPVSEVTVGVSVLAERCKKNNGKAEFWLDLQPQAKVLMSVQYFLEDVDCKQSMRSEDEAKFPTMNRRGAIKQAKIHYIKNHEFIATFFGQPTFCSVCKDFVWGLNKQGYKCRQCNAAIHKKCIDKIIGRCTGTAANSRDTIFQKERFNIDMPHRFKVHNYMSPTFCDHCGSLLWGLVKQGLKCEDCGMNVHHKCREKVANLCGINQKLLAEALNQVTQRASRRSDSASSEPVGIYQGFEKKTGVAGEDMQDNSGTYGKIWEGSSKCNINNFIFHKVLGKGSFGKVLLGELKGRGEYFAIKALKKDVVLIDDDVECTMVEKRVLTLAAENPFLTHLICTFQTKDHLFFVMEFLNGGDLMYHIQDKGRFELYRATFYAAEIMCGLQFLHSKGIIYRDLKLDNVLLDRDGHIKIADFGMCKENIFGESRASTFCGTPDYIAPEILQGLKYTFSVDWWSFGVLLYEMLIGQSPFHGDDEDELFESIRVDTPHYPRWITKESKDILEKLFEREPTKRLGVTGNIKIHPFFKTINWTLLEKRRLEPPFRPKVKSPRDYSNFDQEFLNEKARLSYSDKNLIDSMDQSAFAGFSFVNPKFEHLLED
T1 sequence (P28867 whole entry, the tested form may be a part): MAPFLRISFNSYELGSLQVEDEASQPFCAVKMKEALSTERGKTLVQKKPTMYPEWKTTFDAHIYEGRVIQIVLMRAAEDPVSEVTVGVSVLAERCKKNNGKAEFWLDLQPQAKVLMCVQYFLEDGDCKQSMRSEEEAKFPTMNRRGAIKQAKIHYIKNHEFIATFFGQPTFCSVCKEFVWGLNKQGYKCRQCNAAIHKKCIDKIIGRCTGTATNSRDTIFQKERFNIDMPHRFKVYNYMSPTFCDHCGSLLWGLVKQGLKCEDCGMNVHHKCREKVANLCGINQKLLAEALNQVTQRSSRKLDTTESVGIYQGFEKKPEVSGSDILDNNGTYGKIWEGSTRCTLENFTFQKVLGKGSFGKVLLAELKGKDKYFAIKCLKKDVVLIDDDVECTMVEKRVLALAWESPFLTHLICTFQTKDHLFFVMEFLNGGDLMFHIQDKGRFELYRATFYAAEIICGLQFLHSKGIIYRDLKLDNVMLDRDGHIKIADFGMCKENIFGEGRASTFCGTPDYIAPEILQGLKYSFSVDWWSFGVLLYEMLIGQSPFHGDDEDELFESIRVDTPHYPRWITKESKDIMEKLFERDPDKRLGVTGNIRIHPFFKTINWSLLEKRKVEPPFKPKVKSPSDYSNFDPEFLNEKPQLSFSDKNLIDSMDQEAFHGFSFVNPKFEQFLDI
T3 sequence (Q05655 1-707 isoform Q05655-2): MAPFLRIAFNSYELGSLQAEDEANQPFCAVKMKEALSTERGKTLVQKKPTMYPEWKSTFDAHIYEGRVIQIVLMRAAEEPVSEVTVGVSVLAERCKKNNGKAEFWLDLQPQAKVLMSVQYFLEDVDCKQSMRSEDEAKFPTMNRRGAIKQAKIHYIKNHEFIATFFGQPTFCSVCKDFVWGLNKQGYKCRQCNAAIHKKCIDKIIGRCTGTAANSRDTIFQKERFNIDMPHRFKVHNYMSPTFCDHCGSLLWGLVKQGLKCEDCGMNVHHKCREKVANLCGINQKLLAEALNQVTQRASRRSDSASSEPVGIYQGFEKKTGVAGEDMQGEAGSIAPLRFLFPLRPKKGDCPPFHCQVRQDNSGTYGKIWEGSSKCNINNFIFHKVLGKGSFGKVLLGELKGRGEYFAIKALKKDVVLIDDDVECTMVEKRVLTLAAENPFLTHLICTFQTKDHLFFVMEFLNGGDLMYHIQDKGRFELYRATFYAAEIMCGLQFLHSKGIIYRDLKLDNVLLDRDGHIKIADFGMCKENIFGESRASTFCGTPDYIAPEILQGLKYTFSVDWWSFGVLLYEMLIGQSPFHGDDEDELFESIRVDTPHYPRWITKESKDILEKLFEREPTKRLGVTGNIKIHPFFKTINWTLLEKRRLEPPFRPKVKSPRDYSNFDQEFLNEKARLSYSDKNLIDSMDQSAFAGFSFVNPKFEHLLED

OCCNc1cc(-c2cc(CO)ccn2)c2cc[nH]c2n1 [compound 28578828, 2-({4-[4-(hydroxymethyl)pyridin-2-yl]-1H-pyrrolo[2,3-b]pyridin-6-yl}amino)ethanol]
phosphorylation of myelin basic protein (PKCδI substrate) [1]: decreased phosphorylation | cleavage and release of the PKCδI catalytic domain [1]: inhibit the cleavage and release | phosphorylation of myelin basic protein (PKCδI substrate) [2]: decreased phosphorylation | cleavage and release of the PKCδI catalytic domain [2]: inhibited the cleavage and release | PKCδI activity [3]: specifically inhibit PKCδI activity

Cc1nc2c(c(N(C)C)n1)CCN(C(=O)[C@@H]1C[C@@H](O)CN1)C2 [compound 61397826, (3R,5S)-5-{[4-(dimethylamino)-2-methyl-5,8-dihydropyrido[3,4-d]pyrimidin-7(6H)-yl]carbonyl}-3-pyrrolidinol]
phosphorylation of myelin basic protein (PKCδI substrate) [1]: decreased phosphorylation | cleavage and release of the PKCδI catalytic domain [1]: inhibit the cleavage and release | phosphorylation of myelin basic protein (PKCδI substrate) [2]: decreased phosphorylation | cleavage and release of the PKCδI catalytic domain [2]: inhibited the cleavage and release

N=C(CCN1C(=O)c2ccccc2C1=O)NNC(=O)CCCC(=O)NNC(=N)CCN1C(=O)c2ccccc2C1=O [compound 5139627, N′~1~,N′~5~-bis[3-(1,3-dioxo-1,3-dihydro-2H-isoindo1-2-yl)propanimidoyl]pentanedihydrazide]
cellular toxicity (cell viability) [4]: did not appear to cause cellular toxicity | specificity for PKCδI (relative kinase activity) [5]: specificity for PKCδI | cleavage of PKCδI [6]: specifically inhibits cleavage of PKCδI | cleavage and release of the PKCδI catalytic domain [1]: inhibit the cleavage and release | PKCδVIII (alternatively spliced variant) [7]: not inhibited | phosphorylation of myelin basic protein (PKCδI substrate) [2]: decreased phosphorylation | cleavage and release of the PKCδI catalytic domain [2]: inhibited the cleavage and release | PKCδI activity [3]: specifically inhibit PKCδI activity | other PKC isozyme activities [8]: not inhibited | expression of Bxl-xS [9]: decrease expression | expression of caspase9a [9]: decrease expression

CCN(C/C=C/c1ccccc1)C(=O)CCc1nc2ccccc2[nH]1 [compound 72950115, 3-(1H-benzimidazol-2-yl)-N-ethyl-N-[(2E)-3-phenylprop-2-en-1-yl]propanamide]
phosphorylation of myelin basic protein (PKCδI substrate) [1]: decreased phosphorylation | cleavage and release of the PKCδI catalytic domain [1]: inhibit the cleavage and release | phosphorylation of myelin basic protein (PKCδI substrate) [2]: decreased phosphorylation | cleavage and release of the PKCδI catalytic domain [2]: inhibited the cleavage and release

CC(C)(O)C(=O)C=Cc1ccc2c(c1)OCO2 [compound 5320091, 1-(1,3-benzodioxol-5-yl)-4-hydroxy-4-methyl-1-penten-3-one]
phosphorylation of myelin basic protein (PKCδI substrate) [1]: decreased phosphorylation | cleavage and release of the PKCδI catalytic domain [1]: inhibit the cleavage and release | phosphorylation of myelin basic protein (PKCδI substrate) [2]: decreased phosphorylation | cleavage and release of the PKCδI catalytic domain [2]: inhibited the cleavage and release

CN(Cc1cnccn1)C(=O)c1cccc(C#CC(C)(C)O)c1 [compound 43844983, 3-(3-hydroxy-3-methylbut-1-yn-1-yl)-N-methyl-N-(pyrazin-2-ylmethyl)benzamide]
phosphorylation of myelin basic protein (PKCδI substrate) [1]: decreased phosphorylation | cleavage and release of the PKCδI catalytic domain [1]: inhibit the cleavage and release | inhibition of PKCδI cleavage [2, 10]: completely inhibit | inhibition of phosphorylation of MBP [2, 10]: completely inhibit | phosphorylation of myelin basic protein (PKCδI substrate) [2]: decreased phosphorylation | cleavage and release of the PKCδI catalytic domain [2]: inhibited the cleavage and release
